According to patent publication US4151268A, “Barbituric acid antigens and antibodies specific therefor” (Hoffmann-La Roche Inc., priority 1977, dated 1979):

Tests used:
[1] = system: barbituric acid specific antibody (antisera obtained in Example 2); test: Comparison runs: recognition of other barbituric acid derivatives and related compounds by the antibody; conditions: at similar concentrations
[2] = system: barbituric acid specific antibody (antisera obtained in Example 2); test: Radioimmunoassay: competitive inhibition of binding of [C14] pentobarbital to antiserum (ammonium sulfate precipitation); conditions: 4° C., overnight

CCC1(c2ccccc2)C(=O)NC(=O)NC1=O [phenobarbital]
recognition / binding by the antibody [1]: capable of recognizing

CN1C(=O)NC(=O)C(C)(C2=CCCCC2)C1=O (centres unmarked) [hexobarbital]
recognition / binding by the antibody [1]: failed to bind

CCCC(C)C1(CC)C(=O)NC(=S)NC1=O (centres unmarked) [thiopental]
recognition / binding by the antibody [1]: failed to bind

CCC1(CC)C(=O)NC(=O)NC1=O [barbital]
recognition / binding by the antibody [1]: capable of recognizing

CCCC(C)C1(CC)C(=O)NC(=O)NC1=O (centres unmarked) [pentobarbital]
Percent inhibition of binding of pentobarbital-C^14 ([2]; 1 nanogram non-radioactive pentobarbital added): 10%
Percent inhibition of binding of pentobarbital-C^14 ([2]; 5 nanograms non-radioactive pentobarbital added, sample volume 10 μl): 20%
Percent inhibition of binding of pentobarbital-C^14 ([2]; 10 nanograms non-radioactive pentobarbital added): 28%
Percent inhibition of binding of pentobarbital-C^14 ([2]; 20 nanograms non-radioactive pentobarbital added): 43%
Percent inhibition of binding of pentobarbital-C^14 ([2]; 30 nanograms non-radioactive pentobarbital added): 52%
Percent inhibition of binding of pentobarbital-C^14 ([2]; 40 nanograms non-radioactive pentobarbital added): 63%
recognition / binding by the antibody [1]: capable of recognizing
